Results reported in USRE47528E1, “Protease for wound conditioning and skin care” (B.R.A.I.N. BIOTECHNOLOGY RESEARCH AND INFORMATION NETWORK AG, priority 2009, dated 2019).
Entries after “also recorded” stand apart in the source; their conditions may differ.

Columns and labels:
larval secretions = conditions: cited from earlier work
debrilase = experiment: Liquid phase activity assay and inhibitory profiling (BODIPY-FL-Casein fluorescence assay); assay type: biochemical, Lucilia sericata; conditions: for inhibition of debrilase activity: PMSF 5 mmol/l, APMSF 1 mmol/l
Experimental: Quantification of proteolytic activity was conducted by a fluorescence assay in 96-well plates with BODIPY-FL-Casein (Molecular Probes) used as substrate. Hereby, on the undigested substrate casein the labelling molecules are in close contact to each other and therefore fluorescence is suppressed by a quenching mechanism. In case of hydrolysis these molecules separate from each other and fluorescence can be excited at 485 nm and measured at 520 nm.
A standard assay contained 5 μg/ml BODIPY-FL-Casein in 100 μl PBS buffer and a series of dilutions of protease extract. Samples were incubated for 60 min at 37° C. and fluorescence was measured using a spectrophotometer (NovoStar, BMG LABTECH, Offenburg, Germany), applying the following parameters: excitation 485 nm, emission 520 nm, gain 5, one cycle, 10 flashes. Serine protease inhibitors APMSF (4-amidinophenylmethanesulfonyl fluoride) and PMSF (phenylmethanesulfonyl fluoride) were used for testing the specificity of the isolated protease. The following assay concentration were used:
The recombinant protease type was identified in a liquid assay in a 96-well plate using inhibitors specific for different types of proteases. Herein, specific inhibitors for trypsin (4-amidinophenylmethyl-sulphonyl fluoride, APMSF), serine (phenylmethylsulphonyl fluoride, PMSF), aspartyl-(pepstatin A) and metallo-type proteases (1,10-phenanthroline) were measured.

[1] = tested on: Lucilia sericata debrilase (trypsin-like serine protease), mature protein SEQ ID NO: 4, pre-propeptide SEQ ID NO: 2; experiment: Enzyme kinetics of Debrilase, fluorometric assay with Z-Gly-Gly-Arg-AMC; assay type: biochemical
Experimental: (§1) Activity of the debrilase was measured in liquid assay using appropriate buffer systems in the range of 3-10 (0.1 to 0.2 M citric acid buffer, pH 3-7; 0.05 M tris buffer, pH 8; 0.1 M carbonate buffer, pH 9-10) and the fluorogenic substrate Z-Gly-Gly-Arg-AMC. The release of 7-amino-4-methylcoumarin (AMC) was measured with a BMC Novostar Fluorometer (λexcitation 365 nm, λemission 440 nm).
Molecular and Enzymatic Properties of Debrilase

human PAR2 = biological target: T1, human PAR2 (Homo sapiens, UniProt P55085); experiment: Activation of PAR 2 (calcium imaging) in HEK293 cells; assay type: cell-based; conditions: HEK293 cells endogenously expressing human PAR2, Ca2+-flux read-out
T1 construct: wild type HEK293 cell line endogenously expressing human PAR2; endogenous in cells; host or cells: HEK293
T1 sequence (P55085 26-397): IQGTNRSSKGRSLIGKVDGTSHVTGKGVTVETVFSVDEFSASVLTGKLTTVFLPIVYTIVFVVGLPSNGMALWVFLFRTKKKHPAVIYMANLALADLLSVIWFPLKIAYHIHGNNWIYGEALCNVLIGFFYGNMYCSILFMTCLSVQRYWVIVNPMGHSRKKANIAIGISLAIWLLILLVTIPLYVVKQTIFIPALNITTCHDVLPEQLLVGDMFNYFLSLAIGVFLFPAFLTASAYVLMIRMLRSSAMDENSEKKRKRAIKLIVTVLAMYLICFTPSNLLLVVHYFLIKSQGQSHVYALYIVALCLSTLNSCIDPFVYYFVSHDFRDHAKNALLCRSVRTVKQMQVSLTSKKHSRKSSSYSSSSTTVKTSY
Experimental: The activity of debrilase as agonist of PAR 2 was monitored over time in a cell based fluorescence assay by use of a wild type HEK293 cell line endogenously expressing human PAR2. In brief, 1 day prior to performing the assay, HEK293 cells expressing human PAR2 were plated onto 96-well, black-walled, assay plates, at a density of 45,000 cells per well. Using a 96-well microplate reader (FlexStation®, Molecular Devices, Sunnyvale, Calif.), the change of the cellular calcium concentration was monitored by use of the calcium sensitive fluorescent dye fluo-4 (excitation 494 nm, emission 516 nm). The PAR 2 agonist trypsin (8 nM) was used as positive control. The dye-loaded cells in plates were placed into the fluorescence microplate reader to monitor fluorescence (excitation 488 nm, emission 520 nm) change after the addition of 50 μl assay buffer (118 mM NaCl; 4.7 mM KCl; 1.2 mM MgSO4; 1.2 mM KH2PO4 4.2 mM […]; 1.3 mM CaCl2; 10 mM HEPES (pH: 7.4)) supplemented with an agonist. Calcium mobilization was quantified as the change of peak fluorescence (ΔF) over the baseline level (F). Data were expressed as the mean S.E. of the ΔF/F value (=RFU, relative fluorescence units) of replicated independent samples. The analysis was done with the software of the FlexStation®.

fibrin = experiment: Solid phase activity assay for fibrinolytic activity (fibrin agar); assay type: biochemical; conditions: fibrin containing agar
Experimental: To identify fibrinolytic activity in extracts of casein degrading clones a solid agar assay was used. For this, a solution A containing 200 mg agarose, 87 mg NaCl and 3 mg CaCl2 were added to 10 ml 0.1 M Tris pH7.4 and incubated at 50° C. To a second solution B containing 10 ml 0.9% NaCl and 100 mg Fibrin (Sigma F3879), 20 μl Plasminogen (2 units/mg, Sigma P7397) e added and pre-incubated at 50° C. Both solutions were combined with 12 μl Thrombin (175-350 NIH units, Sigma T4265) and spread on agar plates using micro-well forming devices. In case of a fibrinolytic activity a clear zone appears in the opaque medium around extract containing cavities.
To identify fibrinolytic activity in casein degrading clones a solid agar assay was used. Therefore a medium A consisting of 10 ml 2× Luria Bertani containing 200 mg agarose, 87 mg NaCl and 3 mg CaCl2 was incubated at 50° C. To a solution B containing 10 ml 0.9% NaCl and 100 mg Fibrin (Sigma F3879), 20 μl plasminogen (2 units/mg, Sigma P7397) was added and pre-incubated at 50° C. […]
Fibrinolytic activity in cell free crude extracts was determined using buffered agar medium containing fibrin. […] Crude extract with fibrinolytic activity was detected by a clear zone around microwells of the recombinant clone harbouring the protease gene of SEQ ID NO. […]

Z-Gly-Gly-Arg-AMC = experiment: Fluorometric liquid assay using Z-Gly-Gly-Arg-AMC as substrate; assay type: biochemical
Experimental: as §1

Tosyl-Gly-Pro-Arg-AMC = experiment: Proteolytic activity against Tosyl-Gly-Pro-Arg-AMC; assay type: biochemical
Suc-Ala-Ala-Phe-AMC = experiment: Proteolytic activity against Suc-Ala-Ala-Phe-AMC; assay type: biochemical
casein = experiment: Diffusion assay on agar containing casein / skim milk; assay type: biochemical
Source text: FIG. 1: Diffusion assay on agar containing casein showing a clearing zone around a debrilase secreting clone of E. coli.
Colony forming units resulted from mass excision described above were screened on agar media containing 2% skim milk under selective conditions. Expression of heterologous proteases was driven by the vector comprising inducible Plac promoter. Colonies expressing heterologous proteases were detected by the formation of clearing zones in the turbid Skim Milk medium around the colonies.

For `c1cnc2c(c1)ccc1cccnc12` [1,10-phenanthroline], the “inhibition of degradation of laminin and fibronectin by larval secretions” value (“inhibition of degradation … by larval secretions” for short) (larval secretions) is listed as “not significantly”.

In the case of `N=C(N)c1ccc(CS(=O)(=O)F)cc1` [APMSF, 4-amidinophenylmethanesulfonyl fluoride], the “inhibition of degradation … by larval secretions” value (larval secretions) is given as “not significantly”, the “inhibition of proteolytic activity of debrilase against casein and fibrin” value (debrilase) is given as “inhibited” and the “inhibition of debrilase activity” value (debrilase) is given as “inhibited completely”.

Molecule `Cc1cc(=O)oc2cc(NC(=O)[C@H](CCCNC(=N)N)NC(=O)CNC(=O)CNC(=O)OCc3ccccc3)ccc12` [Z-Gly-Gly-Arg-AMC] has a Kcat ([1]; Table 1, substrate Z-Gly-Gly-Arg-AMC (footnote)) of 37.5 s⁻¹ and a Km ([1]; substrate Z-Gly-Gly-Arg-AMC, fluorometric assay) of 70 µM.

In the case of `O=S(=O)(F)Cc1ccccc1` [PMSF, phenylmethanesulfonyl fluoride], the “inhibition of degradation … by larval secretions” value (larval secretions) is listed as “inhibited”, the “inhibition of proteolytic activity of debrilase against casein and fibrin” value (debrilase) is listed as “inhibited” and the “inhibition of debrilase activity” value (debrilase) is listed as “inhibited completely”.

B1: debrilase: recombinant trypsin-like serine protease from Lucilia sericata; mature protein SEQ ID NO: 4 (protein, listed as Lucilia sericata)
chain: IVNGVDTTIQAHPYQVSLQTNNGFHFCGGSIISEDIIVTAAHCMQSYKAYQFKVRLGSTEYDNGGELVAVKSFKYHEGYNPETMVNDVAVIKLATPVRESSKVRYVKLAEKTPATGTPAVVTGWGSKCFLFCQTAPKVLQKVEVDIVDEKTCASSEYKYGDDIKETMLCAYAVKKDACQGDSGGPLVANNKLVGVVSWGKGCALAGYPGVYCDVATVRSWIEKTAKSL
In the case of B1, the “activation of protease-activated receptor 2 (PAR 2)” value (human PAR2) is reported as “activates the protease-activated receptor PAR-2”, the “fibrinolytic activity (cleavage of fibrin)” value (fibrin) is reported as “clearing zone; also recorded: ability to cleave fibrin; also recorded: exhibits proteolytic activity against fibrin” and the Topt (Z-Gly-Gly-Arg-AMC) is reported as 37 °C. For the same molecule, the pHopt (Z-Gly-Gly-Arg-AMC) was 8, the “pH-range of enzymatic activity” value (Z-Gly-Gly-Arg-AMC; buffer systems in the range of pH 3-10, Z-Gly-Gly-Arg-AMC) was 5-10 pH and the specific activity (Z-Gly-Gly-Arg-AMC; fluorometric assay using Z-Gly-Gly-Arg-AMC as substrate) was 90 μmol* · min^−1 · mg^−1 enzyme. The “proteolytic activity against Tosyl-Gly-Pro-Arg-AMC” value (Tosyl-Gly-Pro-Arg-AMC) was “exhibits proteolytic activity against fibrin, casein and Tosyl-Gly-Pro-Arg-AMC”, the “proteolytic activity against Suc-Ala-Ala-Phe-AMC” value (Suc-Ala-Ala-Phe-AMC) was “not against Suc-Ala-Ala-Phe-AMC” and the “caseinolytic activity (cleavage of casein)” value (casein) was “clearing zone; also recorded: ability to cleave fibrin and casein; also recorded: exhibits proteolytic activity against fibrin, casein”.
